Source: patent publication US6444821B1, “Crystals of piperidine derivatives, intermediates for production of the same, and process for producing the same” (Ajinomoto Co., Inc., priority 1995, dated 2002)
Where a name gives a salt, the structure may show the parent alone.

Legend:
[1] = Oral bioavailability in Beagle dog (plasma AUC oral vs intravenous); type: in vivo; settings: 3.0 mg/kg, plasma sampled 30 minutes to 24 hours
Experimental: Each of the monohydrate and trihydrate crystals of Compound (I) produced in Examples 4 and 6 was orally administered to a Beagle dog at a dose of 3.0 mg/kg. After 30 minutes, 1 hour, 2 hours, 3 hours, 4 hours, 6 hours, 8 hours and 24 hours of the administration, the blood was collected, the concentration of Compound (I) in the plasma was measured, and the area under plasma concentration curve (AUC) was obtained.

[2] = Storage stability of crystals; type: physicochemical; settings: storage for 1 month
From the text: Still further, the monohydrate and trihydrate crystals of the present invention can be easily produced from α-type anhydride crystals and β-type anhydride crystals.

[3] = Dissolution rate in gastric juice model solution (JP-1 solution); type: physicochemical; settings: 20 mg crystals in 500 ml JP-1 solution, 37° C., FIG. 9
Experimental: Each 20 mg of the monohydrate and trihydrate crystals of Compound (I) produced in Examples 4 and 6 was added to 500 ml of a gastric juice model solution (JP-1 solution according to Japan Pharmacopeia) of 37° C., and the concentration of Compound (I) in the solution was measured over the course of time.

Structure (SMILES)	bioavailability (ratio of the AUC value of oral administration to that of intravenous administration) ([1]; hydrochloride monohydrate) [%]	stability (chemical and physical) on storage [2]	dissolution rate [3]	bioavailability (ratio of the AUC value of oral administration to that of intravenous administration) ([1]; hydrochloride trihydrate) [%]
O=CN1CCC(C(=O)NCCN2CCC(=C3c4ccccc4C=Cc4ccccc43)CC2)CC1 [monohydrate crystals, N-(2-(4-(5H-dibenzo(a,d)cyclohepten-5-ylidene)-piperidino)ethyl)-1-formyl-4-piperidinecarboxamide hydrochloride monohydrate]	73.4	unchanged even after storage for 1 month	–	–
O=CN1CCC(C(=O)NCCN2CCC(=C3c4ccccc4C=Cc4ccccc43)CC2)CC1 [trihydrate crystals, N-(2-(4-(5H-dibenzo[a,d]cyclohepten-5-ylidene)-piperidino)ethyl)-1-formyl-4-piperidinecarboxamide hydrochloride trihydrate]	–	–	high dissolution rate compared to the monohydrate crystals	49.6
